Consider 20 molecules from PubChem BioAssay AID248 (DTP/NCI, 2004).

In the test the test system is L1210 leukemia ip in BDF1 mice, survival T/C. Put plainly: NCI In Vivo Anticancer Drug Screen. Data for tumor model L1210 Leukemia (intraperitoneal) in B6D2F1 (BDF1) mice. Particulars: endpoint: mean survival time, higher = longer survival. The method, boiled down: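 Transplantable tumor model; survival measured in treated vs vehicle control mice. Value = treated/control.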

[1] abbreviates: dose: 100.0 mg/kg/injection, schedule: Q01DX001 (ip), vehicle: carboxymethylcellulose (CMC).
The mark [2] stands for this setting: dose: 200.0 mg/kg/injection, schedule: Q01DX001 (ip), vehicle: carboxymethylcellulose (CMC).
[3] abbreviates: dose: 400.0 mg/kg/injection, schedule: Q01DX001 (ip), vehicle: carboxymethylcellulose (CMC).
[4] abbreviates: dose: 100.0 mg/kg/injection, schedule: Q04DX002 (ip), vehicle: saline with Tween-80.
The mark [5] stands for this setting: dose: 200.0 mg/kg/injection, schedule: Q04DX002 (ip), vehicle: saline with Tween-80.
The mark [6] stands for this setting: dose: 400.0 mg/kg/injection, schedule: Q04DX002 (ip), vehicle: saline with Tween-80.
Setting [7] is: dose: 100.0 mg/kg/injection, schedule: Q04DX002 (ip), vehicle: saline.
Where [8] appears, read: dose: 200.0 mg/kg/injection, schedule: Q04DX002 (ip), vehicle: saline.
[9] abbreviates: dose: 400.0 mg/kg/injection, schedule: Q04DX002 (ip), vehicle: saline.

Several values for one entry are separate records, joined by “and”; a condition that tells them apart may be missing. Identical values can stand only once. Toxic doses and inconclusive results are not listed.

As for `O=C(O)CN1C(=O)CSC1=S`, the T/C is, setting by setting: (dose: 100.0 mg/kg/injection, schedule: Q01DX009 (ip), vehicle: saline with Tween-80) 655 % of control; (dose: 200.0 mg/kg/injection, schedule: Q01DX009 (ip), vehicle: saline with Tween-80) 91 % of control; (dose: 400.0 mg/kg/injection, schedule: Q01DX009 (ip), vehicle: saline with Tween-80) 89 % of control.

With `Nc1nc2ncc(CCNc3ccc(C(=O)NC(CCC(=O)O)C(=O)O)cc3)nc2c(=O)[nH]1` (stereo not given), the T/C is 96 % of control (dose: 18.75 mg/kg/injection, schedule: Q01DX001 (ip), vehicle: other); 103 % of control (dose: 18.75 mg/kg/injection, schedule: Q01DX Z (ip), vehicle: other); 97 % of control (dose: 37.5 mg/kg/injection, schedule: Q01DX001 (ip), vehicle: other); 102 % of control (dose: 37.5 mg/kg/injection, schedule: Q01DX Z (ip), vehicle: other); 104 % of control (dose: 75.0 mg/kg/injection, schedule: Q01DX001 (ip), vehicle: other); 112 % of control (dose: 75.0 mg/kg/injection, schedule: Q01DX Z (ip), vehicle: other). Moreover, for the setting “dose: 150.0 mg/kg/injection, schedule: Q01DX001 (ip), vehicle: other”, the T/C was 119 % of control.

Regarding `O=C(O)COc1ccc(C(=O)c2cc(Br)ccc2OCC(=O)O)cc1`, the T/C under setting [1] is 105 % of control, the T/C under setting [2] is 98 % of control and the T/C under setting [3] is 103 % of control.

`CN1CC=C(/C=C/c2cccc3ccccc23)CC1`: the T/C runs as follows: (dose: 25.0 mg/kg/injection, schedule: Q01DX009 (ip), vehicle: saline) 100 % of control; (dose: 50.0 mg/kg/injection, schedule: Q01DX009 (ip), vehicle: saline) 103 % of control; (dose: 100.0 mg/kg/injection, schedule: Q01DX009 (ip), vehicle: saline) 114 % of control; (dose: 100.0 mg/kg/injection, schedule: Q04DX003 (ip), vehicle: saline) 103 % of control.

Regarding `Cc1cc[n+](C2CC(C)(C)c3ccccc3C2=O)cc1` (stereo not given), the T/C by setting is: (dose: 12.5 mg/kg/injection, schedule: Q01DX001 (ip), vehicle: Klucel (hydroxypropylcellulose) (HPC)) 100 % of control; (dose: 25.0 mg/kg/injection, schedule: Q01DX001 (ip), vehicle: Klucel (hydroxypropylcellulose) (HPC)) 113 % of control; (dose: 50.0 mg/kg/injection, schedule: Q01DX001 (ip), vehicle: Klucel (hydroxypropylcellulose) (HPC)) 98 % of control.

Regarding `CCOC1(OCC)CS(=O)(=O)C1Cl` (stereo not given), the T/C was 107 % of control (dose: 50.0 mg/kg/injection, schedule: Q01DX001 (ip), vehicle: saline with Tween-80); 98 % of control (dose: 100.0 mg/kg/injection, schedule: Q01DX001 (ip), vehicle: saline with Tween-80); 98 % of control (dose: 200.0 mg/kg/injection, schedule: Q01DX001 (ip), vehicle: saline with Tween-80).

For the molecule `C/C=C1\CCCCN(Cc2ccccc2)CCC1`, the T/C is 104 % of control (dose: 75.0 mg/kg/injection, schedule: Q01DX001 (ip), vehicle: saline) and 98 % of control (dose: 150.0 mg/kg/injection, schedule: Q01DX001 (ip), vehicle: saline).

On to `O=c1[nH]c2ccccc2c2ccc(Cl)cc12`, for which the T/C was 103 % of control under setting [1], 100 % of control under setting [2] and 102 % of control under setting [3].

For the molecule `Oc1ccc2cc(Br)ccc2c1-c1c(O)ccc2cc(Br)ccc12`, the T/C runs as follows: under setting [4], 97 % of control; under setting [5], 94 % of control; under setting [6], 87 % of control.

On to `O=NNc1ccccn1`, for which the T/C by setting is: (dose: 6.25 mg/kg/injection, schedule: Q04DX003 (ip), vehicle: saline) 111 % of control; (dose: 8.0 mg/kg/injection, schedule: Q01DX009 (ip), vehicle: saline) 116 % of control; (dose: 8.0 mg/kg/injection, schedule: Q04DX003 (ip), vehicle: saline) 121 % of control and 123 % of control; (dose: 12.0 mg/kg/injection, schedule: Q01DX009 (ip), vehicle: saline) 106 % of control; (dose: 12.0 mg/kg/injection, schedule: Q04DX003 (ip), vehicle: saline) 156 % of control; (dose: 18.0 mg/kg/injection, schedule: Q01DX009 (ip), vehicle: saline) 119 % of control. Under “dose: 50.0 mg/kg/injection, schedule: Q04DX003 (ip), vehicle: saline”, the T/C is 114 % of control.

For `COc1ccc(-c2c(C)nc(N)nc2OC)cc1`, the T/C under setting [4] is 96 % of control, the T/C under setting [5] was 100 % of control and the T/C under setting [6] is 96 % of control.

Turning to `O=C(Nc1ccc(N=C(NC2CCCCC2)c2ccccc2)cc1)c1ccc(C(=O)Nc2ccc(N=C(NC3CCCCC3)c3ccccc3)cc2)cc1`, the T/C runs as follows: (dose: 15.0 mg/kg/injection, schedule: Q01DX Z (ip), vehicle: carboxymethylcellulose (CMC)) 101 % of control; (dose: 30.0 mg/kg/injection, schedule: Q01DX Z (ip), vehicle: carboxymethylcellulose (CMC)) 97 % of control; (dose: 60.0 mg/kg/injection, schedule: Q01DX Z (ip), vehicle: carboxymethylcellulose (CMC)) 101 % of control; (dose: 120.0 mg/kg/injection, schedule: Q01DX Z (ip), vehicle: carboxymethylcellulose (CMC)) 97 % of control.

Turning to `CN(N=O)C(=O)NCCSSCCNC(=O)N(C)N=O`, the T/C runs as follows: (dose: 5.0 mg/kg/injection, schedule: Q01DX011 (ip), vehicle: carboxymethylcellulose (CMC)) 107 % of control; (dose: 5.0 mg/kg/injection, schedule: Q01DX Z (ip), vehicle: carboxymethylcellulose (CMC)) 104 % of control; (dose: 10.0 mg/kg/injection, schedule: Q01DX011 (ip), vehicle: carboxymethylcellulose (CMC)) 102 % of control; (dose: 10.0 mg/kg/injection, schedule: Q01DX Z (ip), vehicle: carboxymethylcellulose (CMC)) 104 % of control; (dose: 20.0 mg/kg/injection, schedule: Q01DX011 (ip), vehicle: carboxymethylcellulose (CMC)) 112 % of control; (dose: 20.0 mg/kg/injection, schedule: Q01DX Z (ip), vehicle: carboxymethylcellulose (CMC)) 112 % of control. Moreover, the T/C by setting is: (dose: 40.0 mg/kg/injection, schedule: Q01DX011 (ip), vehicle: carboxymethylcellulose (CMC)) 161 % of control; (dose: 40.0 mg/kg/injection, schedule: Q01DX Z (ip), vehicle: carboxymethylcellulose (CMC)) 119 % of control.

With `COC(=O)Nc1nc2cc(Cl)c(Cl)cc2[nH]1`, the T/C is 94 % of control under setting [1], 100 % of control under setting [2] and 100 % of control under setting [3].

Regarding `Cc1ccc(C(=O)N/N=C/c2ccccc2O)cc1`, the T/C is, setting by setting: (dose: 100.0 mg/kg/injection, schedule: Q04DX002 (ip), vehicle: Klucel (hydroxypropylcellulose) (HPC)) 89 % of control; (dose: 200.0 mg/kg/injection, schedule: Q04DX002 (ip), vehicle: Klucel (hydroxypropylcellulose) (HPC)) 92 % of control; (dose: 400.0 mg/kg/injection, schedule: Q04DX002 (ip), vehicle: Klucel (hydroxypropylcellulose) (HPC)) 105 % of control.

Take `CCCC(C)c1c(N)nc(N)[nH]c1=O` (stereo not given): the T/C by setting is: (dose: 80.0 mg/kg/injection, schedule: Q01DX001 (ip), vehicle: Klucel (hydroxypropylcellulose) (HPC)) 103 % of control; (dose: 160.0 mg/kg/injection, schedule: Q01DX001 (ip), vehicle: Klucel (hydroxypropylcellulose) (HPC)) 92 % of control; (dose: 320.0 mg/kg/injection, schedule: Q01DX001 (ip), vehicle: Klucel (hydroxypropylcellulose) (HPC)) 94 % of control.

Take `O=C(COc1ccc(Cl)cc1Cl)Nc1ccc2ccccc2c1`: the T/C under setting [7] is 95 % of control and 96 % of control; the T/C under setting [8] is 103 % of control; the T/C under setting [9] is 107 % of control and 92 % of control.

With `O=C(COc1ccccc1[N+](=O)[O-])Nc1cccnc1`, the T/C is 104 % of control (dose: 100.0 mg/kg/injection, schedule: Q04DX003 (ip), vehicle: saline with Tween-80); 98 % of control (dose: 200.0 mg/kg/injection, schedule: Q04DX003 (ip), vehicle: saline with Tween-80); 98 % of control (dose: 400.0 mg/kg/injection, schedule: Q04DX003 (ip), vehicle: saline with Tween-80).

For `CC(=O)Nc1ccc(S(=O)(=O)Nc2ccc(N(CCCl)CCCl)cc2)cc1`, the T/C (dose: 50.0 mg/kg/injection, schedule: Q04DX002 (ip), vehicle: saline with Tween-80) was 107 % of control; the T/C under setting [4] was 110 % of control; the T/C under setting [5] was 107 % of control; the T/C under setting [6] was 110 % of control.

With `Oc1c(Cl)cc(Cl)cc1Sc1cc(Cl)cc(Cl)c1O`, the T/C reads like this: under setting [7], 114 % of control; under setting [8], 100 % of control; under setting [9], 114 % of control.
